Data: patent publication US20260159523A1, “PESTICIDALLY ACTIVE HETEROCYCLIC DERIVATIVES WITH SULFUR CONTAINING SUBSTITUENTS” (SYNGENTA CROP PROTECTION AG, priority 2022, published 2026)

Columns and labels:
Format in all cases: in vivo
[1] = system: Chilo suppressalis; experiment: Activity against Chilo suppressalis (striped rice stemborer), artificial diet; conditions: 144 h, application rate 200 ppm, L2 larvae, 6 days after infestation
Procedure: Activity Against Chilo suppressalis (Striped Rice Stemborer)
24-well microtiter plates with artificial diet were treated with aqueous test solutions prepared from 10'000 ppm DMSO stock solutions by pipetting. After drying, the plates were infested with L2 larvae (6-8 per well). The samples were assessed for mortality, anti-feeding effect, and growth inhibition in comparison to untreated samples 6 days after infestation. Control of Chilo suppressalis by a test sample is given when at least one of the categories mortality, anti-feedant effect, and growth inhibition is higher than the untreated sample.

[2] = system: Diabrotica balteata; experiment: Activity against Diabrotica balteata (corn root worm), maize sprouts; conditions: 96 h, application rate 200 ppm, L2 larvae, 4 days after infestation, read-out: effect in at least one of the two categories (mortality or growth inhibition)
Procedure: Activity Against Diabrotica balteata (Corn Root Worm)
Maize sprouts placed onto an agar layer in 24-well microtiter plates were treated with aqueous test solutions prepared from 10'000 ppm DMSO stock solutions by spraying. After drying, the plates were infested with L2 larvae (6 to 10 per well). The samples were assessed for mortality and growth inhibition in comparison to untreated samples 4 days after infestation.

[3] = system: Euschistus heros; experiment: Activity against Euschistus heros (neotropical brown stink bug), soybean leaves; conditions: 120 h, application rate 200 ppm, N2 nymphs, 5 days after infestation, read-out: effect in at least one of the two categories (mortality or growth inhibition)
Procedure: Activity Against Euschistus heros (Neotropical Brown Stink Bug)
Soybean leaves on agar in 24-well microtiter plates were sprayed with aqueous test solutions prepared from 10'000 ppm DMSO stock solutions. After drying the leaves were infested with N2 nymphs. The samples were assessed for mortality and growth inhibition in comparison to untreated samples 5 days after infestation.

[4] = system: Myzus persicae; experiment: Activity against Myzus persicae (green peach aphid), feeding/contact activity; conditions: foliar, 144 h, application rate 200 ppm, sunflower leaf discs, mixed ages, 6 days after infestation
Procedure: Activity Against Myzus persicae (Green Peach Aphid) Feeding/Contact Activity
Sunflower leaf discs were placed onto agar in a 24-well microtiter plate and sprayed with aqueous test solutions prepared from 10'000 ppm DMSO stock solutions. After drying, the leaf discs were infested with an aphid population of mixed ages. The samples were assessed for mortality 6 days after infestation.

[5] = system: Myzus persicae; experiment: Activity against Myzus persicae (green peach aphid), systemic activity; conditions: 144 h, test rate 24 ppm, pea seedling roots in test solution, 6 days
Procedure: Activity Against Myzus persicae (Green Peach Aphid) Systemic Activity
Roots of pea seedlings infested with an aphid population of mixed ages were placed directly into aqueous test solutions prepared from 10'000 DMSO stock solutions. The samples were assessed for mortality 6 days after placing seedlings into test solutions.

[6] = system: Plutella xylostella; experiment: Activity against Plutella xylostella (diamond back moth), artificial diet; conditions: 192 h, application rate 200 ppm, eggs, 8 days after infestation, read-out: effect in at least one of the two categories (mortality or growth inhibition)
Procedure: Activity Against Plutella xylostella (Diamond Back Moth)
24-well microtiter plates with artificial diet were treated with aqueous test solutions prepared from 10'000 ppm DMSO stock solutions by pipetting. After drying, Plutella eggs were pipetted through a plastic stencil onto a gel blotting paper and the plate was closed with it. The samples were assessed for mortality and growth inhibition in comparison to untreated samples 8 days after infestation.

[7] = system: Spodoptera littoralis; experiment: Activity against Spodoptera littoralis (Egyptian cotton leaf worm), cotton leaf discs; conditions: foliar, 72 h, application rate 200 ppm, L1 larvae, 3 days after infestation
Procedure: Activity Against Spodoptera littoralis (Egyptian Cotton Leaf Worm)
Cotton leaf discs were placed onto agar in 24-well microtiter plates and sprayed with aqueous test solutions prepared from 10'000 ppm DMSO stock solutions. After drying the leaf discs were infested with five L1 larvae. The samples were assessed for mortality, anti-feeding effect, and growth inhibition in comparison to untreated samples 3 days after infestation. Control of Spodoptera littoralis by a test sample is given when at least one of the categories mortality, anti-feedant effect, and growth inhibition is higher than the untreated sample.

CCS(=O)(=O)c1cc(C2(C#N)CC2)cnc1-c1coc2ccc(C(F)(F)F)cc2c1=O [P.1, 1-[5-ethylsulfonyl-6-[4-oxo-6-(trifluoromethyl)chromen-3-yl]-3-pyridyl]cyclopropanecarbonitrile]
≥ 80%: percent control (mortality, anti-feedant effect or growth inhibition) at 200 ppm [1] | percent effect (mortality or growth inhibition) at 200 ppm [2] | percent effect (mortality or growth inhibition) at 200 ppm [3] | mortality at 200 ppm [4] | mortality at 24 ppm [5] | percent effect (mortality or growth inhibition) at 200 ppm [6] | percent control (mortality, anti-feedant effect or growth inhibition) at 200 ppm [7]

CCS(=O)(=O)c1cc(C2(C#N)CC2)cnc1-c1coc2ccc(F)cc2c1=O [P.2, 1-[5-ethylsulfonyl-6-(6-fluoro-4-oxo-chromen-3-yl)-3-pyridyl]cyclo-propanecarbonitrile]
≥ 80%: percent control (mortality, anti-feedant effect or growth inhibition) at 200 ppm [1] | percent effect (mortality or growth inhibition) at 200 ppm [2] | percent effect (mortality or growth inhibition) at 200 ppm [3] | mortality at 24 ppm [5] | percent effect (mortality or growth inhibition) at 200 ppm [6] | percent control (mortality, anti-feedant effect or growth inhibition) at 200 ppm [7]

CCS(=O)(=O)c1cc(C2(C#N)CC2)cnc1-c1coc2ccc(Cl)cc2c1=O [P.3, 1-[6-(6-chloro-4-oxo-chromen-3-yl)-5-ethylsulfonyl-3-pyridyl]-cyclopropanecarbonitrile]
≥ 80%: percent control (mortality, anti-feedant effect or growth inhibition) at 200 ppm [1] | percent effect (mortality or growth inhibition) at 200 ppm [2] | percent effect (mortality or growth inhibition) at 200 ppm [3] | mortality at 200 ppm [4] | percent effect (mortality or growth inhibition) at 200 ppm [6] | percent control (mortality, anti-feedant effect or growth inhibition) at 200 ppm [7]

CCS(=O)(=O)c1cc(C2(C#N)CC2)cnc1-c1coc2ccc(C#N)cc2c1=O [P.4, 3-[5-(1-cyanocyclopropyl)-3-ethylsulfonyl-2-pyridyl]-4-oxo-chromene-6-carbonitrile]
≥ 80%: mortality at 24 ppm [5] | percent effect (mortality or growth inhibition) at 200 ppm [6]

CCS(=O)(=O)c1cc(C2(C#N)CC2)cnc1-c1coc2ccc(Br)cc2c1=O [P.5, 1-[6-(6-bromo-4-oxo-chromen-3-yl)-5-ethylsulfonyl-3-pyridyl]-cyclopropanecarbonitrile]
≥ 80%: percent control (mortality, anti-feedant effect or growth inhibition) at 200 ppm [1] | percent effect (mortality or growth inhibition) at 200 ppm [2] | percent effect (mortality or growth inhibition) at 200 ppm [3] | percent effect (mortality or growth inhibition) at 200 ppm [6] | percent control (mortality, anti-feedant effect or growth inhibition) at 200 ppm [7]

CCS(=O)(=O)c1cc(C2(C#N)CC2)cnc1-c1coc2ccc(I)cc2c1=O [P.6, 1-[5-ethylsulfonyl-6-(6-iodo-4-oxo-chromen-3-yl)-3-pyridyl]cyclo-propanecarbonitrile]
≥ 80%: percent control (mortality, anti-feedant effect or growth inhibition) at 200 ppm [1] | percent effect (mortality or growth inhibition) at 200 ppm [2] | percent effect (mortality or growth inhibition) at 200 ppm [3] | mortality at 200 ppm [4] | percent effect (mortality or growth inhibition) at 200 ppm [6] | percent control (mortality, anti-feedant effect or growth inhibition) at 200 ppm [7]

CCS(=O)(=O)c1cc(C2(C#N)CC2)cnc1-c1coc2ccc(-c3cc(F)cc(F)c3)cc2c1=O [P.7, 1-[6-[6-(3,5-difluorophenyl)-4-oxo-chromen-3-yl]-5-ethylsulfonyl-3-pyridyl]-cyclopropanecarbonitrile]
≥ 80%: percent effect (mortality or growth inhibition) at 200 ppm [2] | mortality at 200 ppm [4] | percent control (mortality, anti-feedant effect or growth inhibition) at 200 ppm [7]

CCS(=O)(=O)c1cc(C2(C#N)CC2)cnc1-c1coc2ccc(-c3ccc(F)cc3)cc2c1=O [P.8, 1-[5-ethylsulfonyl-6-[6-(4-fluorophenyl)-4-oxo-chromen-3-yl]-3-pyridyl]-cyclopropanecarbonitrile]
≥ 80%: percent control (mortality, anti-feedant effect or growth inhibition) at 200 ppm [1] | percent effect (mortality or growth inhibition) at 200 ppm [6]
